Results published in patent US12077503B2, “Substituted cyclic amides and their use as herbicides” (FMC CORPORATION, priority 2015, dated 2024).

How the values were obtained:
Format in all cases: in vivo
[1] = system: ragweed (common ragweed, Ambrosia elatior); assay: Test A postemergence; settings: Ambrosia artemisiifolia, post-emergence, 240 h
Outline: (§1)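 In a loam soil and sand blend, planted seeds got a preemergence directed soil spray, and young plants at the one- to two-leaf stage, 2–10 cm high, got a postemergence application; ~10 d greenhouse hold; injury rated visually, 0 = none, 100 = complete control.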

[2] = system: barnyardgrass (Echinochloa crus-galli); assay: Test A postemergence; settings: Echinochloa crus-galli, post-emergence, 240 h
Outline: as §1

[3] = system: ryegrass, Italian (Italian ryegrass, Lolium multiflorum); assay: Test A postemergence; settings: Lolium multiflorum, post-emergence, 240 h
Outline: as §1

[4] = system: wheat (Triticum aestivum); assay: Test A postemergence; settings: Triticum aestivum, post-emergence, 240 h
Outline: as §1

[5] = system: blackgrass (Alopecurus myosuroides); assay: Test A postemergence; settings: Alopecurus myosuroides, post-emergence, 240 h
Outline: as §1

[6] = system: pigweed (Amaranthus retroflexus); assay: Test A postemergence; settings: Amaranthus retroflexus, post-emergence, 240 h
Outline: as §1

[7] = system: corn (Zea mays); assay: Test A postemergence; settings: Zea mays, post-emergence, 240 h
Outline: as §1

[8] = system: giant foxtail (Setaria faberii); assay: Test A postemergence; settings: Setaria faberi, post-emergence, 240 h
Outline: as §1

[9] = system: Kochia (Kochia scoparia); assay: Test A postemergence; settings: Bassia scoparia, post-emergence, 240 h
Outline: as §1

[10] = system: ducksalad (Heteranthera limosa); assay: Test B flooded paddy test; settings: Heteranthera limosa, 250 g ai/ha, Flood; 0 to 100 scale where 0 is no effect and 100 is complete control; read-out: Ducksalad plant response rating
Outline: (§2)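 2-leaf plants; pots flooded 3 cm over soil; cpd added to paddy water; depth held; greenhouse 13–15 d; visual rating vs controls, 0 = no effect, 100 = complete control.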

[11] = system: barnyardgrass (Echinochloa crus-galli); assay: Test B flooded paddy test; settings: Echinochloa crus-galli, 250 g ai/ha, Flood; 0 to 100 scale where 0 is no effect and 100 is complete control; read-out: Barnyardgrass plant response rating
Outline: as §2

[12] = system: sedge, umbrella (small-flower umbrella sedge, Cyperus difformis); assay: Test B flooded paddy test; settings: Cyperus difformis, 250 g ai/ha, Flood; 0 to 100 scale where 0 is no effect and 100 is complete control; read-out: Sedge, Umbrella plant response rating
Outline: as §2

[13] = system: rice (Oryra sativa); assay: Test B flooded paddy test; settings: Oryza sativa, 250 g ai/ha, Flood; 0 to 100 scale where 0 is no effect and 100 is complete control; read-out: Rice plant response rating
Outline: as §2

[14] = system: ragweed (common ragweed, Ambrosia elatior); assay: Test A preemergence; settings: Ambrosia artemisiifolia, pre-emergence, 240 h, 0 to 100 scale where 0 is no effect and 100 is complete control, read-out: Ragweed plant response rating
Outline: as §1

[15] = system: barnyardgrass (Echinochloa crus-galli); assay: Test A preemergence; settings: Echinochloa crus-galli, pre-emergence, 240 h, 0 to 100 scale where 0 is no effect and 100 is complete control, read-out: Barnyardgrass plant response rating
Outline: as §1

[16] = system: ryegrass, Italian (Italian ryegrass, Lolium multiflorum); assay: Test A preemergence; settings: Lolium multiflorum, pre-emergence, 240 h, 0 to 100 scale where 0 is no effect and 100 is complete control, read-out: Ryegrass, Italian plant response rating
Outline: as §1

[17] = system: pigweed (Amaranthus retroflexus); assay: Test A preemergence; settings: Amaranthus retroflexus, pre-emergence, 240 h, 0 to 100 scale where 0 is no effect and 100 is complete control, read-out: Pigweed plant response rating
[18] = system: giant foxtail (Setaria faberii); assay: Test A preemergence; settings: Setaria faberi, pre-emergence, 240 h, 0 to 100 scale where 0 is no effect and 100 is complete control, read-out: Foxtail, Giant plant response rating
Outline: as §1

[19] = system: Kochia (Kochia scoparia); assay: Test A preemergence; settings: Bassia scoparia, pre-emergence, 240 h, 0 to 100 scale where 0 is no effect and 100 is complete control, read-out: Kochia plant response rating
Outline: as §1

[20] = 125 g ai/ha, preemergence, approx. 10 d

For CSc1ccccc1NC(=O)[C@H]1C(=O)N(C)C[C@@H]1c1ccc(F)c(OC(C)C)c1 [Compound 1076], the pest or weed control at 125 g/ha ([1]; 125 g ai/ha, postemergence, visual injury on 0 to 100 scale (0 no effect, 100 complete control), approx. 10 d, read-out: Ragweed plant response rating) was 0%, the pest or weed control at 31 g/ha ([1]; Postemergence, 31 g ai/ha, visual injury after approx. 10 d, 0 to 100 scale, 0 no effect, 100 complete control, read-out: Plant response rating, Ragweed) was 0% and the pest or weed control at 125 g/ha ([2]; 125 g ai/ha, postemergence, visual injury on 0 to 100 scale (0 no effect, 100 complete control), approx. 10 d, read-out: Barnyardgrass plant response rating) was 50%. For the same molecule, the pest or weed control at 31 g/ha ([2]; Postemergence, 31 g ai/ha, visual injury after approx. 10 d, 0 to 100 scale, 0 no effect, 100 complete control, read-out: Plant response rating, Barnyardgrass) was 0%, the pest or weed control at 125 g/ha ([3]; 125 g ai/ha, postemergence, visual injury on 0 to 100 scale (0 no effect, 100 complete control), approx. 10 d, read-out: Ryegrass, Italian plant response rating) was 0% and the pest or weed control at 31 g/ha ([3]; Postemergence, 31 g ai/ha, visual injury after approx. 10 d, 0 to 100 scale, 0 no effect, 100 complete control, read-out: Plant response rating, Ryegrass, Italian) was 0%. It also gave a plant injury at 125 g/ha ([4]; 125 g ai/ha, postemergence, visual injury on 0 to 100 scale (0 no effect, 100 complete control), approx. 10 d, read-out: Wheat plant response rating) of 0%, a plant injury at 31 g/ha ([4]; Postemergence, 31 g ai/ha, visual injury after approx. 10 d, 0 to 100 scale, 0 no effect, 100 complete control, read-out: Plant response rating, Wheat) of 0% and a pest or weed control at 125 g/ha ([5]; 125 g ai/ha, postemergence, visual injury on 0 to 100 scale (0 no effect, 100 complete control), approx. 10 d, read-out: Blackgrass plant response rating) of 20%. The pest or weed control at 31 g/ha ([5]; Postemergence, 31 g ai/ha, visual injury after approx. 10 d, 0 to 100 scale, 0 no effect, 100 complete control, read-out: Plant response rating, Blackgrass) was 0%, the pest or weed control at 125 g/ha ([6]; 125 g ai/ha, postemergence, visual injury on 0 to 100 scale (0 no effect, 100 complete control), approx. 10 d, read-out: Pigweed plant response rating) was 0% and the pest or weed control at 31 g/ha ([6]; Postemergence, 31 g ai/ha, visual injury after approx. 10 d, 0 to 100 scale, 0 no effect, 100 complete control, read-out: Plant response rating, Pigweed) was 0%. The plant injury at 125 g/ha ([7]; 125 g ai/ha, postemergence, visual injury on 0 to 100 scale (0 no effect, 100 complete control), approx. 10 d, read-out: Corn plant response rating) was 0%, the Corn plant response rating (crop injury, 0 = no effect, 100 = complete kill) at 31 g/ha ([7]; Postemergence, 31 g ai/ha, visual injury after approx. 10 d, 0 to 100 scale, 0 no effect, 100 complete control) was 0% and the pest or weed control at 125 g/ha ([8]; 125 g ai/ha, postemergence, visual injury on 0 to 100 scale (0 no effect, 100 complete control), approx. 10 d, read-out: Foxtail, Giant plant response rating) was 50%. It also gave a pest or weed control at 31 g/ha ([8]; Postemergence, 31 g ai/ha, visual injury after approx. 10 d, 0 to 100 scale, 0 no effect, 100 complete control, read-out: Plant response rating, Foxtail, Giant) of 0%, a pest or weed control at 125 g/ha ([9]; 125 g ai/ha, postemergence, visual injury on 0 to 100 scale (0 no effect, 100 complete control), approx. 10 d, read-out: Kochia plant response rating) of 0% and a pest or weed control at 31 g/ha ([9]; Postemergence, 31 g ai/ha, visual injury after approx. 10 d, 0 to 100 scale, 0 no effect, 100 complete control, read-out: Plant response rating, Kochia) of 0%. For the same molecule, the pest or weed control at 250 g/ha [10] was 90%, the pest or weed control at 250 g/ha [11] was 20% and the pest or weed control at 250 g/ha [12] was 0%. The pest or weed control at 250 g/ha [13] was 40%, the pest or weed control at 31 g/ha ([14]; 31 g ai/ha, Preemergence) was 10% and the pest or weed control at 125 g/ha [14, 20] was 0%. It also gave a pest or weed control at 31 g/ha ([15]; 31 g ai/ha, Preemergence) of 0%, a pest or weed control at 125 g/ha [15, 20] of 90% and a pest or weed control at 31 g/ha ([16]; 31 g ai/ha, Preemergence) of 0%. For the same molecule, the pest or weed control at 125 g/ha [16, 20] was 0%, the pest or weed control at 31 g/ha ([17]; 31 g ai/ha, Preemergence) was 0% and the pest or weed control at 125 g/ha [17, 20] was 20%. It also gave a pest or weed control at 31 g/ha ([18]; 31 g ai/ha, Preemergence) of 80%, a pest or weed control at 125 g/ha [18, 20] of 100% and a pest or weed control at 31 g/ha ([19]; 31 g ai/ha, Preemergence) of 0%. For the same molecule, the pest or weed control at 125 g/ha [19, 20] was 0%.
